Reference: patent US5726159A, “Antithrombotic agents” (Eli Lilly and Company, priority 1995, dated 1998)
Where a name gives a salt, the structure may show the parent alone.

Key:
Type in all cases: biochemical
Settings in all cases: concentration required to double the clotting time
Human plasma [1] = experiment: Human plasma anticoagulation, prothrombin time (PT)
Experimental: (§1) Dog plasma and rat plasma is obtained from conscious mixed-breed hounds (either sex, Hazelton-LRE, Kalamazoo, Mich., U.S.A.) or from anesthetized male Sprague-Dawley rats (Harlan Sprague-Dawley, Inc., Indianapolis, Ind., U.S.A.) by venipuncture into 3.8 percent citrate. Fibrinogen is prepared from in-date ACD human blood as the fraction I-2 according to previous procedures and specifications. […] Human fibrinogen is also purchased as 98 percent pure/plasmin free from American Diagnostica, Greenwich, Conn. Coagulation reagents ACTIN, Thromboplastin, and Human plasma are from Baxter Healthcare Corp., Dade Division, Miami, Fla. Bovine thrombin from Parke-Davis ([…], Mich.) is used for coagulation assays in plasma.
(§2) Coagulation assay procedures are as previously described. […] A CoAScreener coagulation instrument (American LABor, Inc.) is used for all coagulation assay measurements. The prothrombin time (PT) is measured by adding 0.05 mL saline and 0.05 mL Thromboplastin-C reagent to 0.05 mL test plasma. The activated partial thromboplastin time (APTT) is measured by incubation of 0.05 mL test plasma with 0.05 mL Actin reagent for 120 seconds followed by 0.05 mL CaCl2 (0.02M). The thrombin time (TT) is measured by adding 0.05 mL saline and 0.05 mL thrombin (10 NIH units/mL) to 0.05 mL test plasma. The compounds of Formula I are added to human or animal plasma over a wide range of concentrations to determine prolongation effects on the APTT, PT, and TT assays. Linear extrapolations are performed to estimate the concentrations required to double the clotting time for each assay.

Human plasma [2] = experiment: Human plasma anticoagulation, thrombin time (TT)
Experimental: as §1, §2

Human plasma [3] = experiment: Human plasma anticoagulation, activated partial thromboplastin time (APTT)
Experimental: as §1, §2

Compound | 2x Clotting time PT (Human plasma [1]) | 2x Clotting time TT (Human plasma [2]) | 2x Clotting time APTT (Human plasma [3])
Nc1ccc(CNC(=O)[C@@H]2CCCN2C(=O)[C@@H](CC2CCCCC2)NCC(=O)O)c(F)c1 [Example 64, HO2 CCH2 -D-Cha-Pro-4-NHCH2 -3-F-C6 H3 NH2.HCl] | 650 ng/mL | 23 ng/mL | 900 ng/mL
CCS(=O)(=O)N[C@H](CC1CCCCC1)C(=O)N1CCC[C@H]1C(=O)NCc1ccc(CN)cc1 [Example 81, EtSO2 -D-Cha-Pro-4-NHCH2 C6 H4 CH2 NH2.HCl] | 2,700 ng/mL | 110 ng/mL | 1,500 ng/mL
N=C(N)N1CCC(CCNC(=O)[C@@H]2CCCN2C(=O)[C@@H](CC2CCCCC2)NCC(=O)O)CC1 [Example 57, HO2 CCH2 -D-Cha-Pro-4-NHCH2 CH2 -1-amidinopiperidine.HCl] | 340 ng/mL | 14 ng/mL | 360 ng/mL
N=C(N)c1ccc(CCNC(=O)[C@@H]2CCCN2C(=O)[C@@H]2NCC[C@@H]3CCCC[C@@H]32)cc1 [Example 28, 1-Piq-Pro-p-NHCH2 CH2 -C6 H4 C(=NH)NH2.2HCl] | 8,300 ng/mL | 520 ng/mL | 8,100 ng/mL
CS(=O)(=O)CC(=O)N[C@H](CC1CCCCC1)C(=O)N1CCC[C@H]1C(=O)NCc1ccc(C(=N)N)cc1 [Example 92, MeSO2 CH2 CO-D-Cha-Pro-p-NHCH2 C6 H4 C(NH)NH2.HCl] | 340 ng/mL | 8.9 ng/mL | 210 ng/mL
N=C(N)Nc1cccc(CCNC(=O)[C@@H]2CCCN2C(=O)[C@@H]2NCC[C@@H]3CCCC[C@@H]32)c1 [Example 41, D-1-Piq-Pro-m-NHCH2 CH2 C6 H4 NHC(NH)NH2.2HCl] | > 91,000 ng/mL | 82,200 ng/mL | > 91,000 ng/mL
N=C(N)c1cccc(CNC(=O)[C@@H]2CCCN2C(=O)[C@H](N)Cc2ccccc2)c1 [Example 16, D-Phe-Pro-m-NHCH2 C6 H4 C(NH)NH2.0.75HCl] | 8,500 ng/mL | 650 ng/mL | 8,600 ng/mL
N=C(N)c1cccc(CCNC(=O)[C@@H]2CCCN2C(=O)[C@@H]2NCC[C@@H]3CCCC[C@@H]32)c1 [Example 29, 1-Piq-Pro-m-NHCH2 CH2 -C6 H4 C(=NH)NH2.2HCl] | 15,800 ng/mL | 750 ng/mL | 9,800 ng/mL
Nc1ccc(CNC(=O)[C@@H]2CCCN2C(=O)[C@@H](CC2CCCCC2)NCC(=O)O)cc1F [Example 77, HO2 CCH2 -D-Cha-Pro-4-NHCH2 -2-F-aniline.HCl] | 890 ng/mL | 53 ng/mL | 1,600 ng/mL
N=C(N)Nc1ccc(CCNC(=O)[C@@H]2CCCN2C(=O)[C@@H]2NCC[C@@H]3CCCC[C@@H]32)cc1 [Example 39, D-1-Piq-Pro-p-NHCH2 CH2 C6 H4 NHC(NH)NH2.2HCl] | 78,600 ng/mL | 5,300 ng/mL | 69,200 ng/mL
N=C(N)c1ccc(CNC(=O)[C@@H]2CCCN2C(=O)[C@@H](CCC2CCCCC2)NCC(=O)O)cc1 [Example 88, HOOCCH2 -D-hCha-Pro-p-NHCH2 C6 H4 C(NH)NH2.HCl] | 200 ng/mL | 4 ng/mL | 100 ng/mL
N=C(N)C1CCC(CNC(=O)[C@@H]2CCCN2C(=O)[C@@H](CC2CCCCC2)NCC(=O)O)NC1 (stereo partly drawn) [Example 67, HO2 CCH2 -D-Cha-Pro-2-NHCH2 -5-amidinopiperidine.HCl] | 1,300 ng/mL | 34. ng/mL | 1,800 ng/mL
N=C(N)c1cc(F)c(CNC(=O)[C@@H]2CCCN2C(=O)[C@@H](CC2CCCCC2)NCC(=O)O)c(F)c1 [Example 72, HO2 CCH2 -D-Cha-Pro-4-NHCH2 -3,5-F2 -benzamidine.HCl] | 160 ng/mL | 1 ng/mL | 160 ng/mL
N=C(N)c1ccc(CNC(=O)[C@@H]2CCCN2C(=O)[C@H]2C[C@H]3CCCC[C@H]3CN2)cc1 [Example 19, D-3-Piq-Pro-p-NHCH2 C6 H4 C(NH)NH2.3HCl] | 540 ng/mL | 58 ng/mL | 300 ng/mL
CCC(CC)C(=O)N[C@@H](CCC(=O)O)C(=O)N1CCC[C@H]1C(=O)NCc1ccc(C(=N)N)cc1 [Example 90, (C2 H5)2 CHCO-Glu-Pro-p-NHCH2 C6 H4 C(NH)NH2.HCl] | 14,600 ng/mL | 330 ng/mL | 14,500 ng/mL
